Results on 27 compounds are retold here after ChEMBL document CHEMBL1130753, “Solid phase synthesis of a biased mini tetrapeptoid-library for the discovery of monodentate ITAM mimics as ZAP-70 inhibitors” (Bioorg Med Chem Lett, 1998).

Molecules are shown by their SMILES. Where a SMILES comes first, the peptide text is derived from it. [ ]: non-standard residue; d: D form. The star is where a group is joined. Gly(N-Bn(4-CH2PO3H2)) = O=C(O)CNCc1ccc(CP(=O)(O)O)cc1; N(3-phenylpropyl)Gly = O=C(O)CNCCCc1ccccc1; Hexanoyl = CCCCCC(=O)*; Nleu = CC(C)CNCC(=O)O; NEtG = CCNCC(=O)O

Test [1] has as its target Tyrosine-protein kinase Lck (Homo sapiens) (UniProt P06239). The test can be described thus: Compound was tested for its antagonistic activity at 100 uM concentration against SH2 domain of LCK protein. The test is classed as functional.
The target of test [2] is Growth factor receptor-bound protein 2 (Homo sapiens) (UniProt P62993). The test can be described thus: Antagonistic activity at 100 uM concentration against SH-2 domain of growth factor receptor binding protein (Grb2).
Chain of Growth factor receptor-bound protein 2 (Homo sapiens) (P62993 whole entry, looked up): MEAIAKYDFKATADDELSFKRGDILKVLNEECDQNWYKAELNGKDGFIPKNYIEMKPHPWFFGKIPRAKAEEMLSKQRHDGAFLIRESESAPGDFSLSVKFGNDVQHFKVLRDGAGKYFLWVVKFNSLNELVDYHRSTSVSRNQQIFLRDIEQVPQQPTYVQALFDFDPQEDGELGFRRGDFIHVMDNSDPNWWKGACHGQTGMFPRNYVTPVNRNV
Test [3] deals with T1, Tyrosine-protein kinase ZAP-70 (Homo sapiens, UniProt P43403).
T1 sequence (P43403 whole entry): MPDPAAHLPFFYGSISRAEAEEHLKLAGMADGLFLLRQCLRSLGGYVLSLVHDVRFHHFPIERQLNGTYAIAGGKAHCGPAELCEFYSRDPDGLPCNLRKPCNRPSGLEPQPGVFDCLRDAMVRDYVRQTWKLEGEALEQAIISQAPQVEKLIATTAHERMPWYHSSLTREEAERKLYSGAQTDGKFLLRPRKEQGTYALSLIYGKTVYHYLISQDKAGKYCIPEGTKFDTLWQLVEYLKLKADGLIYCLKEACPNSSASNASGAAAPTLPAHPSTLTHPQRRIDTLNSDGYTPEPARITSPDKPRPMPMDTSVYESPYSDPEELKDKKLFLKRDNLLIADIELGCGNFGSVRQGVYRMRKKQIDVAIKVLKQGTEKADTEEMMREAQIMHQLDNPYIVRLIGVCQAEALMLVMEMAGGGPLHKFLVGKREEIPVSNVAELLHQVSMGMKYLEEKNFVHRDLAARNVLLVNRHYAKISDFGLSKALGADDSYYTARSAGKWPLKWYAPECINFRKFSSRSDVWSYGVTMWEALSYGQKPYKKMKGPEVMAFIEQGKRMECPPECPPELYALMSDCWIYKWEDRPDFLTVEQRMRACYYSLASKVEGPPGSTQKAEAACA
Kind of test: Inhibition of binding to human ZAP-70 SH2 domain.

Chain of Tyrosine-protein kinase Lck (Homo sapiens) (P06239 2-509 limits assumed): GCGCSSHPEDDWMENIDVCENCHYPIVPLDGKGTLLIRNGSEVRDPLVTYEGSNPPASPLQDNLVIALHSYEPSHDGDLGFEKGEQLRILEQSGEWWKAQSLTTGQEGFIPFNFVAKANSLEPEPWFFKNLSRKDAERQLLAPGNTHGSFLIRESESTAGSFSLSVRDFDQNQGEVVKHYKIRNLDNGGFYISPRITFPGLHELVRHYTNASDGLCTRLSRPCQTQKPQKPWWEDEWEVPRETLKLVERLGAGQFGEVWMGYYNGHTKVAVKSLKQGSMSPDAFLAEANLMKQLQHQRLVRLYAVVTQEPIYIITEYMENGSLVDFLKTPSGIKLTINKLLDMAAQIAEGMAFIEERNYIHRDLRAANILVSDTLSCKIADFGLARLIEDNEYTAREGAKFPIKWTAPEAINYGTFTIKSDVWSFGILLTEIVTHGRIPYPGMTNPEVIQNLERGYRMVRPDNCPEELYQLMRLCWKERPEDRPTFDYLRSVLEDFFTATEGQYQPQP

One may read the inhibition as the change of the read-out against control, counted positive when it falls. In the case of `CCCCCC(=O)N(CC(=O)N(CCCc1ccccc1)CC(=O)N(CCCc1ccccc1)CC(=O)N(CCCc1ccccc1)CC(N)=O)Cc1ccc(CP(=O)(O)O)cc1` (Hexanoyl-[Gly(N-Bn(4-CH2PO3H2))][N(3-phenylpropyl)Gly][N(3-phenylpropyl)Gly][N(3-phenylpropyl)Gly]-NH2), the values for the inhibition in test [1] and in test [2] were 4% and 5%, respectively.

Turning to `CCCCCC(=O)N(CC(=O)N(CCCc1ccccc1)CC(=O)N(CCCc1ccccc1)CC(=O)N(CC)CC(N)=O)Cc1ccc(CP(=O)(O)O)cc1` (Hexanoyl-[Gly(N-Bn(4-CH2PO3H2))][N(3-phenylpropyl)Gly][N(3-phenylpropyl)Gly][NEtG]-NH2), the inhibition in test [1] and in test [2] was 4% throughout.

For `CCCCCC(=O)N(CC(=O)N(CCCc1ccccc1)CC(=O)N(CCCc1ccccc1)CC(=O)N(CC(N)=O)CC(C)C)Cc1ccc(CP(=O)(O)O)cc1` (Hexanoyl-[Gly(N-Bn(4-CH2PO3H2))][N(3-phenylpropyl)Gly][N(3-phenylpropyl)Gly][Nleu]-NH2), the inhibition in test [1] is 6%; in test [2] it was 3%.

One may read the IC50 as the concentration that gives 50% inhibition. Low readings indicate greater potency in that assay, high ones weaker potency in that assay. Regarding `CCCCCC(=O)N(CC(=O)N(CCCc1ccccc1)CC(=O)N(CC)CC(=O)N(CCCc1ccccc1)CC(N)=O)Cc1ccc(CP(=O)(O)O)cc1` (Hexanoyl-[Gly(N-Bn(4-CH2PO3H2))][N(3-phenylpropyl)Gly][NEtG][N(3-phenylpropyl)Gly]-NH2), in test [3], the 50% inhibitory concentration (IC50) was > 100 µM. The inhibition in test [1] is 4%; in test [2], 20%.

Consider `CCCCCC(=O)N(CC(=O)N(CCCc1ccccc1)CC(=O)N(CC)CC(=O)N(CC)CC(N)=O)Cc1ccc(CP(=O)(O)O)cc1` (Hexanoyl-[Gly(N-Bn(4-CH2PO3H2))][N(3-phenylpropyl)Gly][NEtG][NEtG]-NH2), for which the figures for the inhibition in test [1] and in test [2] were 4% and 5%, respectively.

`CCCCCC(=O)N(CC(=O)N(CCCc1ccccc1)CC(=O)N(CC)CC(=O)N(CC(N)=O)CC(C)C)Cc1ccc(CP(=O)(O)O)cc1` (Hexanoyl-[Gly(N-Bn(4-CH2PO3H2))][N(3-phenylpropyl)Gly][NEtG][Nleu]-NH2): the inhibition in test [1] amounted to 7%; in test [2], 3%.

Take `CCCCCC(=O)N(CC(=O)N(CCCc1ccccc1)CC(=O)N(CC(=O)N(CCCc1ccccc1)CC(N)=O)CC(C)C)Cc1ccc(CP(=O)(O)O)cc1` (Hexanoyl-[Gly(N-Bn(4-CH2PO3H2))][N(3-phenylpropyl)Gly][Nleu][N(3-phenylpropyl)Gly]-NH2): in test [3], the IC50 was > 100 µM. The inhibition in test [1] and in test [2] was 32% in each case.

For the compound `CCCCCC(=O)N(CC(=O)N(CCCc1ccccc1)CC(=O)N(CC(=O)N(CC)CC(N)=O)CC(C)C)Cc1ccc(CP(=O)(O)O)cc1` (Hexanoyl-[Gly(N-Bn(4-CH2PO3H2))][N(3-phenylpropyl)Gly][Nleu][NEtG]-NH2), the inhibition in test [1] worked out at 5%; in test [2], 6%.

As to `CCCCCC(=O)N(CC(=O)N(CCCc1ccccc1)CC(=O)N(CC(=O)N(CC(N)=O)CC(C)C)CC(C)C)Cc1ccc(CP(=O)(O)O)cc1` (Hexanoyl-[Gly(N-Bn(4-CH2PO3H2))][N(3-phenylpropyl)Gly][Nleu][Nleu]-NH2), the inhibition came out at 16% in test [1] and 0% in test [2].

With `CCCCCC(=O)N(CC(=O)N(CC)CC(=O)N(CCCc1ccccc1)CC(=O)N(CCCc1ccccc1)CC(N)=O)Cc1ccc(CP(=O)(O)O)cc1` (Hexanoyl-[Gly(N-Bn(4-CH2PO3H2))][NEtG][N(3-phenylpropyl)Gly][N(3-phenylpropyl)Gly]-NH2), the inhibition was determined as 0% in test [1] and 2% in test [2].

Regarding `CCCCCC(=O)N(CC(=O)N(CC)CC(=O)N(CCCc1ccccc1)CC(=O)N(CC)CC(N)=O)Cc1ccc(CP(=O)(O)O)cc1` (Hexanoyl-[Gly(N-Bn(4-CH2PO3H2))][NEtG][N(3-phenylpropyl)Gly][NEtG]-NH2), the values for the inhibition in test [1] and in test [2] were 7% and 8%, respectively.

With `CCCCCC(=O)N(CC(=O)N(CC)CC(=O)N(CCCc1ccccc1)CC(=O)N(CC(N)=O)CC(C)C)Cc1ccc(CP(=O)(O)O)cc1` (Hexanoyl-[Gly(N-Bn(4-CH2PO3H2))][NEtG][N(3-phenylpropyl)Gly][Nleu]-NH2), the inhibition in test [1] stood at 3%; in test [2] it was 4%.

On to `CCCCCC(=O)N(CC(=O)N(CC)CC(=O)N(CC)CC(=O)N(CCCc1ccccc1)CC(N)=O)Cc1ccc(CP(=O)(O)O)cc1` (Hexanoyl-[Gly(N-Bn(4-CH2PO3H2))][NEtG][NEtG][N(3-phenylpropyl)Gly]-NH2), for which the inhibition in test [1] worked out at 1%; in test [2], 4%.

For the compound `CCCCCC(=O)N(CC(=O)N(CC)CC(=O)N(CC)CC(=O)N(CC)CC(N)=O)Cc1ccc(CP(=O)(O)O)cc1` (Hexanoyl-[Gly(N-Bn(4-CH2PO3H2))][NEtG][NEtG][NEtG]-NH2), the inhibition in test [1] amounted to 4%; in test [2] it was 6%.

For `CCCCCC(=O)N(CC(=O)N(CC)CC(=O)N(CC)CC(=O)N(CC(N)=O)CC(C)C)Cc1ccc(CP(=O)(O)O)cc1` (Hexanoyl-[Gly(N-Bn(4-CH2PO3H2))][NEtG][NEtG][Nleu]-NH2), the inhibition in test [1] and in test [2] was 2% in each case.

In the case of `CCCCCC(=O)N(CC(=O)N(CC)CC(=O)N(CC(=O)N(CCCc1ccccc1)CC(N)=O)CC(C)C)Cc1ccc(CP(=O)(O)O)cc1` (Hexanoyl-[Gly(N-Bn(4-CH2PO3H2))][NEtG][Nleu][N(3-phenylpropyl)Gly]-NH2), the values for the inhibition in test [1] and in test [2] were 15% and 2%, respectively.

Turning to `CCCCCC(=O)N(CC(=O)N(CC)CC(=O)N(CC(=O)N(CC)CC(N)=O)CC(C)C)Cc1ccc(CP(=O)(O)O)cc1` (Hexanoyl-[Gly(N-Bn(4-CH2PO3H2))][NEtG][Nleu][NEtG]-NH2), the inhibition in test [1] stood at 0%; in test [2] it was 2%.

Consider `CCCCCC(=O)N(CC(=O)N(CC)CC(=O)N(CC(=O)N(CC(N)=O)CC(C)C)CC(C)C)Cc1ccc(CP(=O)(O)O)cc1` (Hexanoyl-[Gly(N-Bn(4-CH2PO3H2))][NEtG][Nleu][Nleu]-NH2), for which the results for the inhibition in test [1] and in test [2] were 6% and 8%, respectively.

Regarding `CCCCCC(=O)N(CC(=O)N(CC(=O)N(CCCc1ccccc1)CC(=O)N(CCCc1ccccc1)CC(N)=O)CC(C)C)Cc1ccc(CP(=O)(O)O)cc1` (Hexanoyl-[Gly(N-Bn(4-CH2PO3H2))][Nleu][N(3-phenylpropyl)Gly][N(3-phenylpropyl)Gly]-NH2), the figures for the inhibition in test [1] and in test [2] were 3% and 0%, respectively.

Turning to `CCCCCC(=O)N(CC(=O)N(CC(=O)N(CCCc1ccccc1)CC(=O)N(CC)CC(N)=O)CC(C)C)Cc1ccc(CP(=O)(O)O)cc1` (Hexanoyl-[Gly(N-Bn(4-CH2PO3H2))][Nleu][N(3-phenylpropyl)Gly][NEtG]-NH2), the results for the inhibition in test [1] and in test [2] were 4% and 5%, respectively.

With `CCCCCC(=O)N(CC(=O)N(CC(=O)N(CCCc1ccccc1)CC(=O)N(CC(N)=O)CC(C)C)CC(C)C)Cc1ccc(CP(=O)(O)O)cc1` (Hexanoyl-[Gly(N-Bn(4-CH2PO3H2))][Nleu][N(3-phenylpropyl)Gly][Nleu]-NH2), the figures for the inhibition in test [1] and in test [2] were 1% and 3%, respectively.

In the case of `CCCCCC(=O)N(CC(=O)N(CC(=O)N(CC)CC(=O)N(CCCc1ccccc1)CC(N)=O)CC(C)C)Cc1ccc(CP(=O)(O)O)cc1` (Hexanoyl-[Gly(N-Bn(4-CH2PO3H2))][Nleu][NEtG][N(3-phenylpropyl)Gly]-NH2), the inhibition was determined as 10% in test [1] and 2% in test [2].

For `CCCCCC(=O)N(CC(=O)N(CC(=O)N(CC)CC(=O)N(CC)CC(N)=O)CC(C)C)Cc1ccc(CP(=O)(O)O)cc1` (Hexanoyl-[Gly(N-Bn(4-CH2PO3H2))][Nleu][NEtG][NEtG]-NH2), the inhibition worked out at 61% in test [1] and 15% in test [2].

In the case of `CCCCCC(=O)N(CC(=O)N(CC(=O)N(CC)CC(=O)N(CC(N)=O)CC(C)C)CC(C)C)Cc1ccc(CP(=O)(O)O)cc1` (Hexanoyl-[Gly(N-Bn(4-CH2PO3H2))][Nleu][NEtG][Nleu]-NH2), the results for the inhibition in test [1] and in test [2] were 9% and 30%, respectively.

For `CCCCCC(=O)N(CC(=O)N(CC(=O)N(CC(=O)N(CCCc1ccccc1)CC(N)=O)CC(C)C)CC(C)C)Cc1ccc(CP(=O)(O)O)cc1` (Hexanoyl-[Gly(N-Bn(4-CH2PO3H2))][Nleu][Nleu][N(3-phenylpropyl)Gly]-NH2), the inhibition in test [1] came out at 1%; in test [2], 5%.

Consider `CCCCCC(=O)N(CC(=O)N(CC(=O)N(CC(=O)N(CC)CC(N)=O)CC(C)C)CC(C)C)Cc1ccc(CP(=O)(O)O)cc1` (Hexanoyl-[Gly(N-Bn(4-CH2PO3H2))][Nleu][Nleu][NEtG]-NH2), for which the inhibition in test [1] amounted to 1%; in test [2], 4%.

On to `CCCCCC(=O)N(CC(=O)N(CC(=O)N(CC(=O)N(CC(N)=O)CC(C)C)CC(C)C)CC(C)C)Cc1ccc(CP(=O)(O)O)cc1` (Hexanoyl-[Gly(N-Bn(4-CH2PO3H2))][Nleu][Nleu][Nleu]-NH2), for which the inhibition stood at 3% in test [1] and 6% in test [2].
